Data reported in PubChem BioAssay (NCI).
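Method: 48-hour compound exposure of cells in 96-well plates, five concentrations, linear interpolation of endpoints. The concentration for full growth arrest is given as TGI.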

Experiments:
Assay in all cases: growth of human tumour cells (NCI), 48 h
786-0 renal = tested on: 786-0 renal
A498 renal = tested on: A498 renal
A549 NSCLC = tested on: A549 NSCLC
ACHN renal = tested on: ACHN renal
BT-549 breast = tested on: BT-549 breast
CAKI-1 renal = tested on: CAKI-1 renal
CCRF-CEM leukemia = tested on: CCRF-CEM leukemia
COLO 205 colon = tested on: COLO 205 colon
DU-145 prostate = tested on: DU-145 prostate
EKVX NSCLC = tested on: EKVX NSCLC
HCC-2998 colon = tested on: HCC-2998 colon
HCT-116 colon = tested on: HCT-116 colon
HCT-15 colon = tested on: HCT-15 colon
HL-60(TB) leukemia = tested on: HL-60(TB) leukemia
HOP-62 NSCLC = tested on: HOP-62 NSCLC
HOP-92 NSCLC = tested on: HOP-92 NSCLC
HS 578T breast = tested on: HS 578T breast
HT29 colon = tested on: HT29 colon
K-562 leukemia = tested on: K-562 leukemia
KM12 colon = tested on: KM12 colon
LOX IMVI melanoma = tested on: LOX IMVI melanoma
M14 melanoma = tested on: M14 melanoma
MALME-3M melanoma = tested on: MALME-3M melanoma
MCF7 breast = tested on: MCF7 breast
MDA-MB-231 breast = tested on: MDA-MB-231 breast
MDA-MB-435 = tested on: MDA-MB-435
MDA-N = tested on: MDA-N
MOLT-4 leukemia = tested on: MOLT-4 leukemia
NCI-H226 lung = tested on: NCI-H226 lung
NCI-H23 lung = tested on: NCI-H23 lung
NCI-H460 lung = tested on: NCI-H460 lung
NCI-H522 lung = tested on: NCI-H522 lung
NCI/ADR-RES ovarian = tested on: NCI/ADR-RES ovarian
OVCAR-3 ovarian = tested on: OVCAR-3 ovarian
OVCAR-4 ovarian = tested on: OVCAR-4 ovarian
OVCAR-5 ovarian = tested on: OVCAR-5 ovarian
OVCAR-8 ovarian = tested on: OVCAR-8 ovarian
PC-3 prostate = tested on: PC-3 prostate
RXF 393 renal = tested on: RXF 393 renal
SF-268 CNS = tested on: SF-268 CNS
SF-295 CNS = tested on: SF-295 CNS
SF-539 CNS = tested on: SF-539 CNS
SK-MEL-2 melanoma = tested on: SK-MEL-2 melanoma
SK-MEL-28 melanoma = tested on: SK-MEL-28 melanoma
SK-MEL-5 melanoma = tested on: SK-MEL-5 melanoma
SK-OV-3 ovarian = tested on: SK-OV-3 ovarian
SN12C renal = tested on: SN12C renal
SNB-19 CNS = tested on: SNB-19 CNS
SNB-75 CNS = tested on: SNB-75 CNS
SR leukemia = tested on: SR leukemia
SW-620 colon = tested on: SW-620 colon
T-47D breast = tested on: T-47D breast
TK-10 renal = tested on: TK-10 renal
U251 CNS = tested on: U251 CNS
UACC-257 melanoma = tested on: UACC-257 melanoma
UACC-62 melanoma = tested on: UACC-62 melanoma
UO-31 renal = tested on: UO-31 renal
IGROV1 ovarian = tested on: IGROV1 ovarian
RPMI-8226 leukemia = tested on: RPMI-8226 leukemia

Question: Which results are given for `O=C(Nc1nn(C(=O)c2cccnc2)c(=O)s1)c1ccc(Cl)cc1`?
Answer: TGI (786-0 renal): > 100 µM; TGI (A498 renal): > 100 µM; TGI (A549 NSCLC): > 100 µM; TGI (ACHN renal): > 100 µM; TGI (BT-549 breast): > 100 µM; TGI (CAKI-1 renal): > 100 µM; TGI (CCRF-CEM leukemia): > 100 µM; TGI (COLO 205 colon): > 100 µM; TGI (DU-145 prostate): > 100 µM; TGI (EKVX NSCLC): > 100 µM; TGI (HCC-2998 colon): > 100 µM; TGI (HCT-116 colon): > 100 µM; TGI (HCT-15 colon): > 100 µM; TGI (HL-60(TB) leukemia): > 100 µM; TGI (HOP-62 NSCLC): > 100 µM; TGI (HOP-92 NSCLC): > 100 µM; TGI (HS 578T breast): 60.3 µM; TGI (HT29 colon): > 100 µM; TGI (K-562 leukemia): > 100 µM; TGI (KM12 colon): > 100 µM; TGI (LOX IMVI melanoma): > 100 µM; TGI (M14 melanoma): > 100 µM; TGI (MALME-3M melanoma): 91.5 µM; TGI (MCF7 breast): > 100 µM; TGI (MDA-MB-231 breast): > 100 µM; TGI (MDA-MB-435): > 100 µM; TGI (MDA-N): > 100 µM; TGI (MOLT-4 leukemia): > 100 µM; TGI (NCI-H226 lung): 77.2 µM; TGI (NCI-H23 lung): > 100 µM; TGI (NCI-H460 lung): > 100 µM; TGI (NCI-H522 lung): 51.7 µM; TGI (NCI/ADR-RES ovarian): > 100 µM; TGI (OVCAR-3 ovarian): > 100 µM; TGI (OVCAR-4 ovarian): > 100 µM; TGI (OVCAR-5 ovarian): > 100 µM; TGI (OVCAR-8 ovarian): > 100 µM; TGI (PC-3 prostate): > 100 µM; TGI (RXF 393 renal): 93.8 µM; TGI (SF-268 CNS): 40.4 µM; TGI (SF-295 CNS): > 100 µM; TGI (SF-539 CNS): 95.4 µM; TGI (SK-MEL-2 melanoma): > 100 µM; TGI (SK-MEL-28 melanoma): > 100 µM; TGI (SK-MEL-5 melanoma): > 100 µM; TGI (SK-OV-3 ovarian): > 100 µM; TGI (SN12C renal): > 100 µM; TGI (SNB-19 CNS): > 100 µM; TGI (SNB-75 CNS): 82.2 µM; TGI (SR leukemia): > 100 µM; TGI (SW-620 colon): > 100 µM; TGI (T-47D breast): > 100 µM; TGI (TK-10 renal): > 100 µM; TGI (U251 CNS): > 100 µM; TGI (UACC-257 melanoma): > 100 µM; TGI (UACC-62 melanoma): > 100 µM; TGI (UO-31 renal): 78.9 µM

Question: How did the TGI (786-0 renal) turn out when `C/C=C(\C)C(=O)OC1/C=C(\C)CC/C=C(\C)CC2OC(=O)C(C)(OC(C)=O)C12` (stereo not given) was run?
Answer: > 100 µM

Question: What about the TGI (A498 renal) of the same compound?
Answer: > 100 µM

Question: What about the TGI (A549 NSCLC) of the same compound?
Answer: > 100 µM

Question: What about the TGI (ACHN renal) of the same compound?
Answer: > 100 µM

Question: And the TGI (BT-549 breast)?
Answer: > 100 µM

Question: And the TGI (CAKI-1 renal)?
Answer: > 100 µM

Question: What about the TGI (CCRF-CEM leukemia) of the same compound?
Answer: > 100 µM

Question: And the TGI (COLO 205 colon)?
Answer: > 100 µM

Question: What about the TGI (DU-145 prostate) of the same compound?
Answer: > 100 µM

Question: What about the TGI (EKVX NSCLC) of the same compound?
Answer: > 100 µM

Question: What about the TGI (HCC-2998 colon) of the same compound?
Answer: > 100 µM

Question: What about the TGI (HCT-116 colon) of the same compound?
Answer: > 100 µM

Question: And the TGI (HCT-15 colon)?
Answer: > 100 µM

Question: And the TGI (HL-60(TB) leukemia)?
Answer: > 100 µM

Question: And the TGI (HOP-62 NSCLC)?
Answer: > 100 µM

Question: And the TGI (HOP-92 NSCLC)?
Answer: > 100 µM

Question: And the TGI (HS 578T breast)?
Answer: > 100 µM

Question: And the TGI (HT29 colon)?
Answer: > 100 µM

Question: And the TGI (IGROV1 ovarian)?
Answer: > 100 µM

Question: What about the TGI (K-562 leukemia) of the same compound?
Answer: > 100 µM

Question: And the TGI (KM12 colon)?
Answer: > 100 µM

Question: What about the TGI (LOX IMVI melanoma) of the same compound?
Answer: > 100 µM

Question: What about the TGI (M14 melanoma) of the same compound?
Answer: > 100 µM

Question: What about the TGI (MALME-3M melanoma) of the same compound?
Answer: > 100 µM

Question: What about the TGI (MCF7 breast) of the same compound?
Answer: > 100 µM

Question: What about the TGI (MDA-MB-231 breast) of the same compound?
Answer: > 100 µM

Question: And the TGI (MDA-MB-435)?
Answer: > 100 µM

Question: And the TGI (MDA-N)?
Answer: > 100 µM

Question: And the TGI (MOLT-4 leukemia)?
Answer: > 100 µM

Question: What about the TGI (NCI-H226 lung) of the same compound?
Answer: > 100 µM

Question: And the TGI (NCI-H23 lung)?
Answer: > 100 µM

Question: What about the TGI (NCI-H460 lung) of the same compound?
Answer: > 100 µM

Question: And the TGI (NCI-H522 lung)?
Answer: > 100 µM

Question: And the TGI (NCI/ADR-RES ovarian)?
Answer: > 100 µM

Question: And the TGI (OVCAR-3 ovarian)?
Answer: > 100 µM

Question: And the TGI (OVCAR-4 ovarian)?
Answer: > 100 µM

Question: What about the TGI (OVCAR-5 ovarian) of the same compound?
Answer: > 100 µM

Question: What about the TGI (OVCAR-8 ovarian) of the same compound?
Answer: > 100 µM

Question: And the TGI (PC-3 prostate)?
Answer: > 100 µM

Question: What about the TGI (RPMI-8226 leukemia) of the same compound?
Answer: > 100 µM

Question: What about the TGI (RXF 393 renal) of the same compound?
Answer: > 100 µM

Question: And the TGI (SF-268 CNS)?
Answer: > 100 µM

Question: What about the TGI (SF-295 CNS) of the same compound?
Answer: > 100 µM

Question: What about the TGI (SF-539 CNS) of the same compound?
Answer: > 100 µM

Question: And the TGI (SK-MEL-2 melanoma)?
Answer: > 100 µM

Question: What about the TGI (SK-MEL-28 melanoma) of the same compound?
Answer: > 100 µM

Question: And the TGI (SK-MEL-5 melanoma)?
Answer: > 100 µM

Question: And the TGI (SK-OV-3 ovarian)?
Answer: > 100 µM

Question: And the TGI (SN12C renal)?
Answer: > 100 µM

Question: And the TGI (SNB-19 CNS)?
Answer: > 100 µM

Question: And the TGI (SNB-75 CNS)?
Answer: > 100 µM

Question: What about the TGI (SR leukemia) of the same compound?
Answer: > 100 µM

Question: What about the TGI (SW-620 colon) of the same compound?
Answer: > 100 µM

Question: And the TGI (T-47D breast)?
Answer: > 100 µM

Question: And the TGI (TK-10 renal)?
Answer: > 100 µM

Question: What about the TGI (U251 CNS) of the same compound?
Answer: > 100 µM

Question: What about the TGI (UACC-257 melanoma) of the same compound?
Answer: > 100 µM

Question: What about the TGI (UACC-62 melanoma) of the same compound?
Answer: > 100 µM
